Entries after “also recorded” stand apart in the source; their conditions may differ. Read-outs that look alike come from different tables or passages of the source. Where a SMILES comes first, the peptide text is derived from it.
What was measured:
immobilized Aβ16 = target: T1, immobilized Aβ16 (Homo sapiens, UniProt P05067); experiment: Direct binding assay: surface plasmon resonance, tetrapeptides over immobilized Aβ16-G4-C; details: for Ka × 10^-2 M^-1: 10 mM HEPES pH 6.8, Ka = kon/koff, mean±SD of three independent measurements; for koff: read-out: koff × 10^-3 s^-1
T1 construct: purchased Biopeptide (San Diego, CA, USA); host or cells: chemical synthesis
T1 sequence (P05067 with tags, fused parts or gaps limits assumed): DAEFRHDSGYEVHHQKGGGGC
Protocol: Surface plasmon resonance (SPR) was utilized to detect the direct binding of the tetrapeptides to immobilized Aβ16-G4-C. All SPR experiments were carried out on a BIAcore T100 instrument (GE Healthcare, IL, USA). Research grade sensor chips CM5 carrying the hydrophilic carboxymethylated dextran matrix, HEPES Buffered Saline (HBS) buffer (10 mM HEPES (4-(2-hydroxyethyl)-1-piperazineethanesulfonic acid)), pH 7.4, 150 mM NaCl, 3 mM EDTA, 0.005% surfactant P20), 1-ethyl-3-(3-dimethylaminopropyl)-carbodiimide (EDC), N-hydroxysuccinimide (NHS), 2-(2-pyridinyldithio)-ethaneamine (PDEA), and cysteine were purchased from Biacore (GE, Boston, MA, USA). All other chemicals and solvents were of HPLC-grade or better and were obtained from MilliporeSigma (St. Louis, MO, USA). All buffers were filtered (0.45 μm, nylon) prior to use.
Attachment of the synthetic peptide Aβ16-G4-C to the CM5 chip was performed according to the thiol bond formation protocol described in the Sensor surface handbook (GE Healthcare, Chicago, IL, USA). The carboxymethyl dextran matrix was activated by injection of a 1:1 mixture of EDC and NHS (30 μL, 400 mM EDC, 100 mM NHS) with the following injection of an 80 mM PDEA solution in 0.1 M sodium borate (pH 8.5). The Aβ16-G4-C solution was then injected into the activated flow cell (0.05 mg/mL peptide in 10 mM sodium acetate buffer, pH 4.5). Unreacted disulfide groups on the CM5 chip surface were capped with a 50 mM cysteine solution in 0.1 M sodium acetate buffer (pH 4.0). The change corresponding to the immobilization of Aβ16-G4-C was 1023 response units (RU). The flow rate used for all immobilization steps was 5 μL/min. An unmodified dextran surface was used as a reference surface.
Then, the binding affinities of the immobilized Aβ16-G4-C to the following peptide-analytes were measured. Samples of Ac-HAEE-NH2 and other tetrapeptides were prepared by dilution of respective stock solutions in the running buffer (10 mM HEPES, pH 6.8). Each analyte was diluted to different concentrations (0 μM, 50 μM, 100 μM, 200 μM, 500 μM, 1000 μM, 1500 μM, 2000 μM) and injected in multichannel mode (volume 50 μL and rate 10 μL/min) during 300 s. Then, the chip surface was exposed to the running buffer without analyte for 120 s. After each injection of the analyte, the surface was regenerated with 5 μL of the regeneration buffer (HBS buffer containing 10 mM HEPES, 3 mM EDTA, 0.005% surfactant P20 and 150 mM NaCl, pH 7.4). The signal from the reference surface was subtracted from the raw data, obtained from the flow cell with the immobilized ligand.
The kinetic rate constants were calculated from the sensorgrams by globally fitting the response curves obtained at various analyte concentrations using the Langmuir model (1:1 binding) in the BIAevaluation 4.1 program. The association (kon) and the dissociation (koff) rate constants were fitted simultaneously (1), dR/dt = kon C (Rmax − R) − koff R(1) where R stands for the biosensor response of the formed complex, C is the concentration of the analyte, and Rmax is the maximal theoretical value of the binding response for a given analyte.
Using the obtained data dissociation (Kd) constant was calculated from the ratios of the association (kon) and dissociation (koff) rate constants: Kd = koff/kon, Ka = kon/koff.

rat α4β2 nAChR = experiment: Two-electrode voltage clamp in Xenopus laevis oocytes expressing α4β2 nAChR; format: cell-based; details: for effect of washout with the peptide on current amplitude after Aβ42: 3 min, after 10 µM Aβ42
Protocol: Two-electrode voltage clamp electrophysiology on the α4β2 nAChR expressed in Xenopus laevis oocytes was performed according to previously published protocols [7]. Stage V ± VI Xenopus laevis oocytes were defolliculated with 1 mg/mL collagenase Type I (Life Technologies, Carlsbad, CA, USA) at room temperature (21–24 °C) for 2 h in Barth’s solution without calcium (88.0 mM NaCl, 1.1 mM KCl, 2.4 mM NaHCO3, 0.8 mM MgSO4, 15.0 mM HEPES/NaOH, pH 7.6). The oocytes were stored in Barth’s solution with calcium for 72–120 h (88.0 mM NaCl, 1.1 mM KCl, 2.4 mM NaHCO3, 0.3 mM Ca(NO3)2, 0.4 mM CaCl2, 0.8 mM MgSO4, 15.0 mM HEPES/NaOH, pH 7.6) supplemented with 63.0 μg/mL penicillin-G sodium salt, 40.0 μg/mL streptomycin sulfate.
Oocytes were injected with 3 ng plasmids coding the rat α4 and β2 nAChR subunits (pcDNA3.1 vector) in a molar ratio of 1:1 using an Auto-Nanoliter Injector NanoJect-2 (Drummond Scientific Company, Broomall, PA, USA) in a total injection volume of 23 nL. After injection, oocytes were incubated at 18 °C in Barth’s solution with calcium for 48–120 h. Electrophysiological recordings were made using a Turbo TEC-03X amplifier (npi electronic GmbH, Tamm, Germany) and WinWCP recording software (University of Strathclyde, Glasgow, UK). Oocytes were placed in a small recording chamber with a working volume of 50 μL and 100 μL of agonist (acetylcholine) solution in Barth’s buffer were applied to an oocyte. […] To allow receptor recovery from desensitization, the oocytes were superfused for 5–10 min with buffer (1 mL/min) between ligand applications. Electrophysiological recordings were performed at a holding potential of −60 mV.
Data are presented as means of at least three independent experiments ± SD. The comparison of data groups in electrophysiology studies was performed with ordinary one-way ANOVA. Post-hoc analysis was performed with the Tukey test. Shapiro-Wilk test was used to confirm the normality of the dataset. Statistical analysis was performed using GraphPad Prism 8.4.1 software (GraphPad Software Inc., CA, USA).

[1] = system: amyloid load in the brains; parameters: method as in PMID 26402624; details: injections; cited from earlier work
Aβ = details: previously shown; reference not given; cited from earlier work
Aβ16-G4-C, [Ac]-…-[NH2] = experiment: SPR; Aβ16-G4-C immobilised by thiol coupling on a CM5 chip (1023 RU), BIAcore T100; tetrapeptides injected at 0-2000 μM, 10 μL/min, 300 s; running buffer 10 mM HEPES, pH 6.8; global fit, Langmuir 1:1 model; Kd = koff/kon
[2] = Table S2, SPR, immobilized Aβ16, 25 °C
[3] = Table S2, SPR, immobilized Aβ16, 25 °C, 10 mM HEPES pH 6.8, mean±SD of three independent measurements, read-out: Kd × 10^4 M
[4] = Table S2, SPR, immobilized Aβ16, 25 °C, 10 mM HEPES pH 6.8, mean±SD of three independent measurements
[5] = Table S2, SPR, immobilized Aβ16, 25 °C, 10 mM HEPES pH 6.8, mean±SD of three independent measurements, read-out: kon × M^-1 s^-1
[6] = SPR, BIAcore T100, Aβ16-G4-C on CM5 chip, running buffer 10 mM HEPES pH 6.8, 1:1 Langmuir global fit, Kd = koff/kon, read-out: dissociation constant Kd
[7] = SPR, immobilized Aβ16, 10 mM HEPES pH 6.8

Molecule	Ka × 10^-2 M^-1 (immobilized Aβ16; [2])	Kd (immobilized Aβ16; [3])	koff (immobilized Aβ16; [4])	kon (immobilized Aβ16; [5])	other results
CC(=O)N[C@@H](Cc1c[nH]cn1)C(=O)N[C@@H](C)C(=O)N[C@@H](CC(=O)O)C(=O)N[C@@H](CC(=O)O)C(N)=O [#1, Ac-HADD-NH2] (Ac-HADD-NH2)	3.08±0.08 × 10^-2 M^-1	3.25 ± 0.09 mM	0.0104 ± 2e-05 s⁻¹	3.2 ± 0.08 M⁻¹ s⁻¹	–
CC(=O)N[C@@H](CC(=O)O)C(=O)N[C@@H](CC(=O)O)C(=O)N[C@@H](C)C(=O)N[C@@H](Cc1c[nH]cn1)C(N)=O [#2, Ac-DDAH-NH2] (Ac-DDAH-NH2)	–	–	0.0154 ± 0.0001 s⁻¹	0.52 ± 0.01 M⁻¹ s⁻¹	Kd (immobilized Aβ16; read-out: Ka × 10^-2 M^-1 (converted)): 2.97 mM
CC(=O)N[C@@H](CC(=O)O)C(=O)N[C@@H](CC(=O)O)C(=O)N[C@@H](C)C(=O)N[C@@H](CCCCN)C(N)=O [#4, Ac-DDAK-NH2] (Ac-DDAK-NH2)	7.3±0.3 × 10^-2 M^-1	1.37 ± 0.05 mM	0.0062 ± 0.0001 s⁻¹	4.57 ± 0.09 M⁻¹ s⁻¹	–
CC(=O)N[C@@H](CCCCN)C(=O)N[C@@H](C)C(=O)N[C@@H](CCC(=O)O)C(=O)N[C@@H](CC(=O)O)C(N)=O [#9, Ac-KAED-NH2] (Ac-KAED-NH2)	3.1±0.6 × 10^-2 M^-1	3.3 ± 0.7 mM	0.019 ± 0.001 s⁻¹	5.7 ± 0.9 M⁻¹ s⁻¹	–
CC(=O)N[C@@H](CC(=O)O)C(=O)N[C@@H](CCC(=O)O)C(=O)N[C@@H](C)C(=O)N[C@@H](CCCNC(=N)N)C(N)=O [#12, Ac-DEAR-NH2] (Ac-DEAR-NH2)	5.1±0.2 × 10^-2 M^-1	1.98 ± 0.07 mM	0.00709 ± 9e-05 s⁻¹	3.58 ± 0.08 M⁻¹ s⁻¹	–
CC(=O)N[C@@H](CCCCN)C(=O)N[C@@H](C)C(=O)N[C@@H](CC(=O)O)C(=O)N[C@@H](CCC(=O)O)C(N)=O [#15, Ac-KADE-NH2] (Ac-KADE-NH2)	2.2±0.1 × 10^-2 M^-1	4.5 ± 0.3 mM	0.0096 ± 0.0002 s⁻¹	2.2 ± 0.1 M⁻¹ s⁻¹	–
CC(=O)N[C@@H](CCC(=O)O)C(=O)N[C@@H](CC(=O)O)C(=O)N[C@@H](C)C(=O)N[C@@H](CCCCN)C(N)=O [#16, Ac-EDAK-NH2] (Ac-EDAK-NH2)	0.141±0.009 × 10^-2 M^-1	–	0.0097 ± 0.0002 s⁻¹	0.136 ± 0.006 M⁻¹ s⁻¹	–
CC(=O)N[C@@H](CCC(=O)O)C(=O)N[C@@H](CC(=O)O)C(=O)N[C@@H](C)C(=O)N[C@@H](CCCNC(=N)N)C(N)=O [#18, Ac-EDAR-NH2] (Ac-EDAR-NH2)	0.28±0.03 × 10^-2 M^-1	–	0.0047 ± 0.0001 s⁻¹	0.13 ± 0.01 M⁻¹ s⁻¹	–
CC(=O)N[C@@H](Cc1c[nH]cn1)C(=O)N[C@@H](C)C(=O)N[C@@H](CCC(=O)O)C(=O)N[C@@H](CCC(=O)O)C(N)=O [Ac-HAEE-NH2] (Ac-HAEE-NH2)	110±40 × 10^-2 M^-1	–	3.5e-05 ± 8e-06 s⁻¹	–	Kd (immobilized Aβ16; [6]): 0.09 mM; kon (immobilized Aβ16; SPR, immobilized Aβ16, 10 mM HEPES pH 6.8, read-out: kon): 0.37 M⁻¹ s⁻¹; effect of washout with the peptide on current amplitude after Aβ42 (rat α4β2 nAChR; 25 µM in washout buffer, 100 µM ACh): did not affect the current amplitude; effect of washout with the peptide on current amplitude after Aβ42 (rat α4β2 nAChR; 50 µM in washout buffer, 100 µM ACh): less so at 50 µM; effect on Aβ42-induced inhibition when co-applied with Aβ42 (rat α4β2 nAChR; 100 µM Ac-HAEE-NH2 (10-times molar excess) with 10 µM Aβ42, 3 min pre-incubation, 100 µM ACh): the degree of inhibition was reduced significantly; also recorded: reduced the inhibitory effect of Aβ42 by half; leakage current after washout with peptide-containing buffer (rat α4β2 nAChR; 100 µM Ac-HAEE-NH2 washout after 10 µM Aβ42 and buffer washout): reduced the leakage current almost to the control values; effect of washout with the peptide on current amplitude after Aβ42 (rat α4β2 nAChR; 100 µM in washout buffer, 100 µM ACh): fully revoked the inhibition induced by Aβ42; also recorded: most effective at 100 µM; amplitude of ACh-evoked currents after washout with the peptide (over the range tested) (rat α4β2 nAChR; 25–100 µM in washout buffer after 10 µM Aβ42, 100 µM ACh): dose-dependently returned to the control levels; also recorded: completely restored the receptor response; effect on ACh-evoked current in the absence of Aβ42 (rat α4β2 nAChR; α4β2 nAChR-expressing oocytes): did not affect ACh-evoked current; currents induced by the peptide itself (rat α4β2 nAChR; α4β2 nAChR-expressing oocytes, no ACh): did not induce any currents; amyloid load in the brains of AD model mice [1]: effectively reduce the amyloid load; zinc-dependent oligomerization of Aβ (Aβ): prevent zinc-dependent oligomerization of Aβ
CC(=O)N[C@@H](CCCNC(=N)N)C(=O)N[C@@H](C)C(=O)N[C@@H](CC(=O)O)C(=O)N[C@@H](CC(=O)O)C(N)=O [Ac-RADD-NH2] (Ac-RADD-NH2)	800±100 × 10^-2 M^-1	–	0.00024 ± 4e-05 s⁻¹	18.5 ± 0.1 M⁻¹ s⁻¹	Kd (immobilized Aβ16; [6]): 0.013 mM
CC(=O)N[C@@H](CCCNC(=N)N)C(=O)N[C@@H](C)C(=O)N[C@@H](CCC(=O)O)C(=O)N[C@@H](CCC(=O)O)C(N)=O [Ac-RAEE-NH2] (Ac-RAEE-NH2)	1.3±0.1 × 10^-2 M^-1	7.7 ± 0.6 mM	0.0112 ± 8e-05 s⁻¹	1.5 ± 0.1 M⁻¹ s⁻¹	binding to Aβ16 in the SPR assay (in words) (immobilized Aβ16; [7]): two orders of magnitude weaker binding than Ac-HAEE-NH2
Ac-KAEE-NH2	–	–	–	–	binding to Aβ16 in the SPR assay (in words) (immobilized Aβ16; [7]): no binding was detected at all
Ac-HAEE-NH2 [Ac-HAEE-NH2 tetrapeptide]	–	–	–	–	Kd (Aβ16-G4-C, [Ac]-…-[NH2]): 90 µM; koff (Aβ16-G4-C, [Ac]-…-[NH2]): 4e-05 s⁻¹; kon (Aβ16-G4-C, [Ac]-…-[NH2]): 0.37 M⁻¹ s⁻¹
Ac-RADD-NH2 [Ac-RADD-NH2]	–	–	–	–	Kd (Aβ16-G4-C, [Ac]-…-[NH2]): 13 µM

Source: paper PMC7504039, “Tetrapeptide Ac-HAEE-NH2 Protects α4β2 nAChR from Inhibition by Aβ” (International Journal of Molecular Sciences, 2020)
